The values below come from patent US10449162B2, “Delivery of drug nanoparticles and methods of use thereof” (DFB Soria, LLC, priority 2015, dated 2019).

The subject of one series is skin inflammation models. To be noted: topical treatment; nonclinical evaluations; cited from earlier work.
A short description of series [1]: Solubility of paclitaxel in various solvents (HPLC). Format: physicochemical. How it is done:
For each solvent, about 2 g of the solvent was weighed into a clear glass vial.
Each vial was mixed with a stir bar on a magnetic stirrer for 2 hours at room temperature.
Each vial was then checked every 1-2 hours to see if the solution became clear.

In the case of `CC(=O)O[C@H]1C(=O)[C@@]2(C)[C@H]([C@H](OC(=O)c3ccccc3)[C@]3(O)C[C@H](OC(=O)[C@H](O)[C@@H](NC(=O)c4ccccc4)c4ccccc4)C(C)=C1C3(C)C)[C@]1(OC(C)=O)CO[C@@H]1C[C@@H]2O` [Paclitaxel, paclitaxel], the “Effect in skin inflammation models” value in the series with skin inflammation models is “reduced inflammation, swelling, and erythema”. Also, the “Paclitaxel Solubility at RT” value in series [1] (in Benzyl Alcohol, NF) worked out at 17.02% w/w; in series [1] (in Diethylene Glycol Monoethyl Ether, NF (TRANSCUTOL P)) it was 33.10% w/w; in series [1] (in Diisopropyl Adipate (CERAPHYL 230)), 3.51% w/w; in series [1] (in Dimethyl Isosorbide), 38.22% w/w; in series [1] (in Hexylene Glycol), 4.07% w/w; in series [1] (in Isopropyl Myristate, NF), 0.048% w/w. Besides, the “Paclitaxel Solubility at RT” value is reported as 0.32% w/w in series [1] (in Medium Chain Triglycerides, NF); 0.3 ppm in series [1] (in Mineral Oil, USP (heavy)); 22.30% w/w in series [1] (in Polyethylene Glycol 400, NF); 4.74% w/w in series [1] (in Propylene Carbonate); 0.88% w/w in series [1] (in Propylene Glycol, USP); below 0.05 ppm in series [1] (in Purified Water, USP). The “Paclitaxel Solubility at RT” value is listed as “less than 0.05 ppm” in series [1] (in Purified Water, USP, listed as paclitaxel); 0.041% w/w in series [1] (in Super Refined Oleic Acid, NF); 0.38% w/w in series [1] (in Super Refined Oleyl Alcohol, NF).
